How the values were obtained:
[1] = tested on: M-07e cell line; experiment: M-07e cell proliferation stimulated by SCF (CellTiter-Glo growth inhibition); assay type: cell-based; conditions: 72 h, SCF 100 ng/ml, three days, CellTiter-Glo luminescence, read-out: IC50, growth inhibition of SCF stimulated M-07e cells
Description: This inhibition is measured by the effect of compound concentration on cell growth to assess IC50 values. M-07e cells were seeded at 5×10^4 cells per well of a 96 well cell culture plate in 50 μl of cell culture medium of Iscove's Medium 1× (MOD, CellGro Mediatech catalog #15-016-CV) supplemented with 10% FBS (HyClone catalog #SH30071.03). […] Cells were also treated with staurosporine as a positive control. Cells were stimulated by adding 20 μl of 600 ng/ml SCF to a final concentration of 100 ng/ml (Biosource International SCF kit ligand catalog #PHC2115) in cell culture medium. The cells were incubated at 37° C., 5% CO2 for three days. CellTiter-Glo Buffer (Promega Cell Viability Assay catalog #G7573) and substrate were equilibrated to room temperature, and enzyme/substrate Recombinant Firefly Luciferase/Beetle Luciferin was reconstituted. The cell plates were equilibrated to room temperature for 30 minutes, then lysed by addition of an equivalent volume of the Celltiter-Glo Reagent. […] The plates were read on a Victor Wallac II using Luminescence protocol modified to read 0.1 s per well. The luminescence reading assesses the ATP content, which correlates directly with cell number such that the reading as a function of compound concentration is used to determine the IC50 value.

[2] = tested on: cells with activating c-Kit mutations in the catalytic region; conditions: Ma et al., 2002; cited from earlier work

Structure (SMILES): FC(F)(F)c1ccc(CNc2ccc(Cc3c[nH]c4ncccc34)cn2)cc1 [Compound 1-3, [5-(1H-Pyrrolo[2,3-b]pyridin-3-ylmethyl)-pyridin-2-yl]-(4-trifluoromethyl-benzyl)-amine]
- IC50 [1]: < 1 µM

Structure (SMILES): Cc1ccc(NC(=O)c2ccc(CN3CCN(C)CC3)cc2)cc1Nc1nccc(-c2cccnc2)n1 [ST1571]
- inhibition of cells with c-Kit mutations in the catalytic region [2]: did not inhibit the cells
